The values that follow are results of earlier work, collected in patent US20070238696A1, “Dosage unit for cardioprotection” (priority 2000, published 2007).

The conditions of the data set: men, median intake 419 IU/day compared to median intake 6 IU/day; followed for four years.

Consider vitamin E, for which the relative risk reduction was 44%.
